The text below walks through data of ChEMBL document CHEMBL5726417, “Therapeutic agent for pain” (2017).

What is called pIC50 is the IC50 on a negative log10 scale, so that one unit is a factor of ten.

pIC50: −log10 of the molar value.

For the experiment, the target named is 11-beta-hydroxysteroid dehydrogenase 1 (Rattus norvegicus, UniProt P16232). Nature of the experiment: Inhibition Assay: The procedure for measuring the 11β-HSD1-inhibitory activity is as follows. The enzyme reaction and the measurement were carried out using a 384-well plate. The enzyme was prepared in accordance with Journal of Biological Chemistry, 2001, Vol. 276, p. 21343-21350. The reaction was carried out by adding a test compound at various concentrations to a reaction liquid consisting of a 5 mM phosphate buffer (pH 6.6), 200 nM cortisone, 40 μM reduced nicotinamide adenine dinucleotide phosphate (NADPH), and rat recombinant 11β-HSD1, followed by incubating at room temperature for one hour (10 μl/well). The test compound was prepared by dissolving in dimethyl sulfoxide (DMSO) such that a DMSO concentration reached 1% in the reaction liquid. After the enzyme reaction was completed, the enzyme inhibitory action was measured by detecting cortisol using a homogeneous time-resolved fluorescence (HTRF) method. Each of a d2-labeled cortisol containing 400 μM carbenoxolone and a cryptate-labeled cortisol antibody (CIS Bio International Co., Ltd.) was added at 5 μl/well, followed by incubating at room temperature for 2 hours, and then the fluorescence intensity was measured using a fluorophotometer (trade name: ARVO HTS 1420, Perkin Elmer/Wallac), and the enzyme inhibitory activity was calculated from the fluorescence intensity ratio of two wavelengths (665 nm/620 nm).The measurement results were calculated by averaging the values of 3 wells of the same condition. The ratio when DMSO was added instead of the test compound was taken as 0% and the ratio when 11β-HSD1 was not added was taken as 100%, thereby calculating the 50% inhibition concentration of the test compound as IC50 of the compound inhibitory activity.
11-beta-hydroxysteroid dehydrogenase 1, sequence (P16232 whole entry): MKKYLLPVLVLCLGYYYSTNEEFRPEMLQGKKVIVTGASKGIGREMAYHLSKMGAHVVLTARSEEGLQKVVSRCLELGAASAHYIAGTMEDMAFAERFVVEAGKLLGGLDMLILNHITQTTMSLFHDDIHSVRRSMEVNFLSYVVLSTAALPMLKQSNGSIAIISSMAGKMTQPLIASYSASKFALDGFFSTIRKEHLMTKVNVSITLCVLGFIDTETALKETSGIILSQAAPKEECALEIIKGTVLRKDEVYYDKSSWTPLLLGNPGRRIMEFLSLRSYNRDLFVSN
On to `Cn1c(-c2ccc(F)cc2Cl)nnc1C(C)(C)Oc1c(F)cc(F)cc1F`, for which the pIC50 was 7.28.
Next, `CCn1c(-c2ccc(C(N)=O)cc2)nnc1C(C)(C)Oc1c(F)cc(Cl)cc1F`: 7.15; `CC(C)n1c(-c2ccc(C(N)=O)cc2F)nnc1C(C)(C)Oc1c(F)cc(F)cc1F`: 7.64; `Cn1c(-c2ccc(C(N)=O)cc2F)nnc1C(C)(C)Oc1c(F)cc(Cl)cc1F` [CLOFUTRIBEN]: 6.87.
